Assays:
[1] = biological target: T1, MtCS (chorismate synthase, aroF, Rv2540c) (Mycobacterium tuberculosis, UniProt P9WPY1); assay: biochemical; type: binding; conditions: read-out: dissociation constant
T1 construct: gene aroC

[2] = system: NC(=O)C1=CN([C@@H]2O[C@H](COP(=O)(O)OP(=O)(O)OC[C@H]3O[C@@H](n4cnc5c(N)ncnc54)[C@H](O)[C@@H]3O)[C@@H](O)[C@H]2O)C=CC1; assay: purified protein; conditions: apparent, holoenzyme preincubated with 40 μM FMNox, no EPSP, 50 mM Tris-HCl pH 7.8, 25°C

T1 sequence (P9WPY1 whole entry, looked up): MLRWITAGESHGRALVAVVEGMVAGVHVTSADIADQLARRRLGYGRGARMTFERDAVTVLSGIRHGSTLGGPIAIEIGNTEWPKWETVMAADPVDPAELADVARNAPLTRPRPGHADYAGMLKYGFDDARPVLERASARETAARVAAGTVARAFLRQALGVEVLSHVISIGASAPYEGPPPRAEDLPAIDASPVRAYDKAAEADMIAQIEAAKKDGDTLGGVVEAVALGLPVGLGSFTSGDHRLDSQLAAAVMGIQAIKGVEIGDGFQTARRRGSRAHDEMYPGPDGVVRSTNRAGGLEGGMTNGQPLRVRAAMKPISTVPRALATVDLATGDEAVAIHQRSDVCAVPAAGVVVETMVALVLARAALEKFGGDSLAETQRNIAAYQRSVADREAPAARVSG

Compound `NC(=O)C1=CN([C@@H]2O[C@H](COP(=O)(O)OP(=O)(O)OC[C@H]3O[C@@H](n4cnc5c(N)ncnc54)[C@H](O)[C@@H]3O)[C@@H](O)[C@H]2O)C=CC1` [NADH] has a Kd [1] of 156 ± 12 µM.

“MtCS (chorismate synthase, aroF, Rv2540c) (Mycobacterium tuberculosis H37Rv)” gave a Km [2] of 36 ± 4 µM.
